Test results from publication PMC5334605, “Indolediketopiperazine Alkaloids from Eurotium cristatum EN-220, an Endophytic Fungus Isolated from the Marine Alga Sargassum thunbergii” (Marine Drugs, 2017).
Converted amounts (≈) assume the structure as drawn.

How the values were obtained:
[1] = DPPH radical scavenging assay; details: for DPPH radical scavenging activity (IC50): positive control ascorbic acid
[2] = tested on: brine shrimp (Artemia salina); type: in vivo; details: for brine shrimp lethality (LD50): Artemia salina, n.a. = no activity; for lethal activity against brine shrimp: result in words
Panagrellus redivivus = assay: Nematicidal assay; type: in vivo; details: for nematicidal activity (LD50): Panagrellus redivivus, n.a. = no activity; for nematicidal activity against Panagrellus redivivus: result in words
S. aureus = assay: Antimicrobial broth microdilution assay; type: cell-based, Staphyloccocus aureus; details: Staphylococcus aureus, read-out: MIC against S. aureus
Magnaporthe grisea = assay: microbe, parasite or virus in culture; type: cell-based; details: Pyricularia oryzae, read-out: MIC against Magnaporthe grisea

C=CC(C)(C)c1[nH]c2c(CC=C(C)C)cc(CC=C(C)C)cc2c1C[C@@H]1NC(=O)C(=C)NC1=O [Compound 10, didehydroechinulin]
DPPH radical scavenging activity (IC50) [1]: 13.3 µg/mL
brine shrimp lethality (LD50) [2]: 27.1 µg/mL
lethal activity against brine shrimp [2]: potent lethal activity
nematicidal activity (LD50) (Panagrellus redivivus): 126.4 µg/mL
nematicidal activity against Panagrellus redivivus (Panagrellus redivivus): weak nematicidal effect

C=CC(C)(C)c1[nH]c2cc(CC=C(C)C)ccc2c1/C=C1\NC(=O)C(C)(OC)NC1=O (centres unmarked) [Compound 2, isovariecolorin I]
DPPH radical scavenging activity (IC50) [1]: 20.6 µg/mL
brine shrimp lethality (LD50) [2]: 19.4 µg/mL
lethal activity against brine shrimp [2]: potent lethal activity
nematicidal activity (LD50) (Panagrellus redivivus): 110.3 µg/mL
nematicidal activity against Panagrellus redivivus (Panagrellus redivivus): weak nematicidal effect

C=CC(C)(C)c1[nH]c2c(CC=C(C)C)cc(CC=C(C)C)cc2c1C[C@@H]1NC(=O)[C@H](C)NC1=O [Compound 11, echinulin]
DPPH radical scavenging activity (IC50) [1]: 13.8 µg/mL
lethal activity against brine shrimp [2]: did not show any activity
nematicidal activity against Panagrellus redivivus (Panagrellus redivivus): did not show any activity
MIC (S. aureus): 256 µg/mL (≈ 555 µM)

C=CC(C)(C)c1[nH]c2c(CC=C(C)C)cc(CC=C(C)C)cc2c1C=C1NC(=O)C(C)NC1=O (centres unmarked) [Compound 12, dehydroechinulin]
DPPH radical scavenging activity (IC50) [1]: 6.4 µg/mL
radical scavenging activity against DPPH radicals ([1]; result in words): potent radical scavenging activity
lethal activity against brine shrimp [2]: did not show any activity
nematicidal activity against Panagrellus redivivus (Panagrellus redivivus): did not show any activity
MIC (S. aureus): 256 µg/mL (≈ 557 µM)

C=CC(C)(C)c1[nH]c2ccccc2c1/C=C1\NC(=O)C(C)(OC)NC1=O (centres unmarked) [Compound 13, variecolorin H]
DPPH radical scavenging activity (IC50) [1]: 18.7 µg/mL
MIC (S. aureus): 256 µg/mL (≈ 724 µM)

O=C1O[C@H]([C@@H](O)CO)C(O)=C1O [Ascorbic Acid, ascorbic acid, reference compound]
DPPH radical scavenging activity (IC50) [1]: 2.0 µg/mL

C=CC(C)(C)c1[nH]c2c(CC=C(C)CO)cc(CC=C(C)C)cc2c1CC1NC(=O)C(C)NC1=O (centres unmarked) [Compound 4, 29-hydroxyechinulin]
brine shrimp lethality (LD50) [2]: 140.6 µg/mL
lethal activity against brine shrimp [2]: weaklethal activities

C=CC(C)(C)c1[nH]c2c(C[C@H](O)C(C)(C)O)cccc2c1/C=C1\NC(=O)[C@H](C)NC1=O [Compound 6, rubrumazine B]
DPPH radical scavenging activity (IC50) [1]: 28.5 µg/mL
MIC (Magnaporthe grisea): 64 µg/mL (≈ 150 µM)

C=CC(C)(C)c1[nH]c2ccccc2c1/C=c1\[nH]c(=O)c(=C)[nH]c1=O [Compound 7, neoechinulin B]
DPPH radical scavenging activity (IC50) [1]: 10.9 µg/mL
brine shrimp lethality (LD50) [2]: 105.2 µg/mL
lethal activity against brine shrimp [2]: weaklethal activities
nematicidal activity (LD50) (Panagrellus redivivus): >200 µg/mL

C=CC(C)(C)c1[nH]c2cc(CC=C(C)C)ccc2c1C=c1[nH]c(=O)c(=C)[nH]c1=O [Compound 8, neoechinulin C]
DPPH radical scavenging activity (IC50) [1]: 12.1 µg/mL
brine shrimp lethality (LD50) [2]: 70.1 µg/mL
nematicidal activity (LD50) (Panagrellus redivivus): >200 µg/mL

C=CC(C)(C)c1[nH]c2c(CC=C(C)CO)cc(CC=C(C)C)cc2c1CC1NC(=O)C(C)NC1=O (centres unmarked) [Compound 3, 30-Hydroxyechinulin]
brine shrimp lethality (LD50) [2]: 138.1 µg/mL
lethal activity against brine shrimp [2]: weaklethal activities
